Results on one sequence are retold here after patent US20230167437A1, “COMPOSITIONS FOR TREATING CANCER WITH KRAS MUTATIONS AND USES THEREOF” (Aadigen, LLC, priority 2020, published 2023).

Data set [1] deals with PANC1, PK1, LS513 and PK-45H cells. Description: Cell proliferation over 5 days (CellTiter Glow). The format is cell-based, human. How it is done:
Transfection protocol. The following protocols are reported for 24/48/96 well plate format transfection. Cells should be trypsinized and seeded a day prior transfection Cells were cultured in Dulbecco's Modified Eagle's Medium (DMEM), supplemented with 2 mM glutamine, 1% antibiotics (streptomycin 10,000 μg/mL, penicillin, 10,000 IU/mL) and 10% (w/v) foetal calf serum (FCS), at 37° C. in a humidified atmosphere containing 5% CO2. 96 well plates seeded with 50,000 cells, the day prior transfection, grown to 60-80% confluence and set up to be at around 70% confluence at the day of transfection. Before transfection, cells are washed twice with DMEM (without FBS and pen/strep) (100 μl/well). Cells were then overlaid with 25 μl of complex solution, mixed gently and incubated for 10 min at 37° C.+5% CO2. 50 μl of fresh DMEM (without FBS and Antibiotics) was added and cells were incubated for 2 h at 37° C.+5% CO2 (time of exposure can be adjusted based on sensitivity of the cells). 250 μL of DMEM (containing 10% FCS and 1% antibiotics) were then added without removing the overlay of ADGN peptide/mRNA complexes. Cells were returned to the incubator (37° C., 5% CO2) and analyzed 48 hours to 72 hours post transfection.
Nine different gRNAs targeting KRAS 35G>A mutant G12D (gRNA35A1, gRNA35A2, gRNA35A3, gRNA35A4, gRNA35A5, gRNA35A6; gRNA35A7, gRNA35A8, gRNA35A9) were evaluated on LS513, Panc1, PK-45H, and PK1 cancer cells harboring G12D KRAS mutation. Cas9 mRNA (0.1 μg) and gRNA (0.2 μg) were associated with ADGN-peptide at molar ratio 20/1 (peptide/nucleic acid). LS513, Panc1, PK-45H, PK1, HS-68 and HT-29 cells were cultured in 48 well plate format and treated with free mRNACas9-gRNA, or ADGN/mRNACas9:gRNA complex. Indel frequencies at the endogenous target sequences was evaluated 72 hours after transfection by either T7E1 method or deep sequencing. Cell proliferation was analyzed over a period of 5 days using CellTiter Glow kits on GlowMax (Promega).
(ATP-based viability assays read luminescence as a measure of living cells.)

In data set [2] the test system is G12V, G12D, G12C KRAS mutant cells and WT KRAS cells. The data set can be described thus: Specificity of lead sgRNAs on a large panel of cancer cells harboring different KRAS mutations (indel, proliferation). It is filed as cell-based, human. The conditions noted are these: Cas9 mRNA 0.2 μg, gRNA 0.4 μg. On the procedure:
In order to confirm the specificity of sgRNAs targeting G12V, G12C or G12D KRAS mutation, gRNA35T3 targeting G12V, gRNA34T6 targeting G12C, and gRNA35A5 targeting G12D were evaluated on a large panel of cancer cells harboring different KRAS mutations including SW403, SW480, PANC1, PK-45H, PK-1, MIA-PACA, H23, H358, HT-29, HS-68 and LS513. Cas9 mRNA (0.2 μg) and gRNA (0.4 μg) were associated with ADGN peptide at molar ratio 20/1 (peptide/nucleic acid). Cells were cultured in 48 well plate format and treated with free mRNACas9-gRNA, or ADGN/mRNACas9:gRNA complex. Indel frequencies at the endogenous target sequences was evaluated 72 hours after transfection by either T7E1 method and cell proliferation was analyzed over a period of 5 days using CellTiter Glow kits on GlowMax (Promega).

Another data set relates to phospho-Akt (Ser 473). The data set can be described thus: Western blot of KRAS downstream signaling 48 h post transfection. The format is cell-based, human. The conditions noted are these: PANC-1 cells. On the procedure: (§1) In order to verify the specific effect of your lead sgRNA targeting G12V and G12D KRAS mutation, gRNA35A5 G12D and gRNA35T3 G12V on KRAS signal transduction pathway in PANC-1 and SW403 cells, we measured the levels of downstream signaling proteins that are activated by KRAS. We specifically looked for changes in key signaling pathways, such as mitogen-activated protein kinase (MAPK) or PI3K/Akt, which are known to be the major effector pathways of KRAS activation. Cas9 mRNA (0.2 μg) and gRNA (0.2 μg or 0.5 μg) were associated with ADGN peptide at molar ratio 20/1 (peptide/nucleic acid). PANC1 and SW403 cells were cultured in 48 well plate format and treated with free mRNACas9-gRNA, or ADGN/mRNACas9:gRNA complex. Levels of Erk and Akt phosphorylation were measured 48 h post transfection by western blot using phospho-Akt (Ser 473) (CST, #9271, RRID:AB_329825) and phospho-p44/42 MAPK (Erk1/2) (Thr202/Tyr204) (CST, #4370, RRID:AB_2315112).
On the technique in general: Immunoblotting shows a protein as a band on a membrane.

Data set [3] concerns phospho-p44/42 MAPK (Erk1/2) (Thr202/Tyr204). The data set is described as above. The format is cell-based, human. The conditions noted are these: PANC-1 cells. On the procedure: as §1
In another data set the test system is pAKT. Description: Downstream signaling proteins quantified by ELISA on tumors. The conditions noted are these: PANC1 tumors. It is filed as in vivo, mice. How it is done: (§2) The specificity of gRNA35A5 G12D and gRNA35T3 G12V for their targets in PANC-1 and SW403 tumors cells, have been analyzed. Female nude mice 6-weeks of age were injected with either Human pancreatic carcinoma cell (Panc1-Luc) containing the 35G>A mutation or Human colorectal cancer cells (SW403) containing 35G>T KRAS mutation (20×10^6 cells in 200 μl PBS). A period of 2 weeks was allowed for tumor development before the beginning of the experiments.
(§3) Animal were injected on day 1 and day 7. Mice received IV injection of 100 μl ADGN/mRNA complex in 5% glucose. At Day 50, animals were sacrificed and tissues/tumors were harvested. At Day 50 post treatment, level of expression of housekeeping genes; glyceraldehyde-3-phosphate dehydrogenase (GAPDH), HPRT-1 and mitochondrial ATP synthase 6 (mATPsy6) was evaluated by PCR in the tumor, liver, spleen and lung.
(§4) We analyzed the level of KRAS G12D or KRAS G12V gene editing by deep sequencing in PANC1 (FIG. 14A) and SW403 (FIG. 14B) tumors, respectively. […] The level of downstream signaling proteins (pAKT and pERK) were quantified by ELISA on PANC1 and SW403 tumors. […] Given that targeting KRAS using Cas9/sgRNA can induce various secondary mutations at or near the target sites, deep sequencing shown similar level of secondary oncogenic mutations (G12D, G12V, G12C, G13D, G12R, G12A, and G12S) in KRAS-mutant cancer cells (SW403/PANC-1) or cells containing wild-type KRAS (HT29) either in vitro or in vivo.

For a further data set, the system named is pERK. The description is as above. It is filed as in vivo, mice. The conditions noted are these: PANC1 tumors. On the procedure:
as §2, §3, §4

Take “AGT TGG AGC TGA TGG CGT (guide AGTTGGAGCTGATGGCGT; chemistry not given here) [gRNA35A5, sgRNA target KRAS G12D mutation (35G>A); PAM AGG]”: in data set [1], the “fold more efficient than gRNA35A2 (cell proliferation)” value is given as 2 fold and the “fold more efficient than gRNA35A6 (cell proliferation)” value amounted to 3 fold. Also, in data set [1] (PANC1, PK1, LS513, PK-45H vs HT29 or HS-68 cells harboring KRAS WT), the “inhibition of proliferation or survival (FIG. 2B)” value is “specifically inhibit proliferation or survival of PANC1, PK1, LS513 and PK-45H cells”. Further, the cell proliferation blocked in data set [1] (PANC1, PK1, LS513 and PK-45H cells, 5 days) came out at 80%. In addition, the “effect on non-targeted KRAS mutant cells and WT KRAS cells (FIGS. 4A-4B)” value in data set [2] is “does not alter G12V and G12C KRAS mutant cells or WT KRAS cells”. Also, in the data set on phospho-Akt (Ser 473), the “level of p-AKT” value is given as “significantly reduced”. In addition, in data set [3], the “level of P-Erk reduced by” value worked out at 15%. In addition, in the data set on pAKT, the “level of p-AKT” value is “significantly reduced”. Further, in the data set with pERK, the “level of p-ERK” value is recorded as “significantly reduced”.
